3 molecules from US11059795B2, “Androgen receptor modulators and methods for their use” (ESSA Pharma, Inc., priority 2018, dated 2021) can be followed below.

Bounds are passed on as bounds.

Data set [1] in a line: Microsomal stability assay, human liver microsomes. The note with it: pH 7.4, 1 μM compound, 0.5 mg/mL protein, 37° C., read-out: HLM +/− NADPH: Clint (μL/min/mg protein). It counts as in vitro ADME. In short, it runs like this: (§1)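 Compound at 1 μM was incubated at 37° C with 0.5 mg/mL liver microsomes and 1 mM NADPH and/or 1 mM UDPGA (with alamethicin) in 100 mM potassium phosphate pH 7.4, 3 mM MgCl2. Samples were taken at 0, 15, 30 and 60 min and measured by LC/MS/MS. t½ came from compound loss relative to 0 min, and Clint was scaled with 45 mg microsomal protein/g liver.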

A short description of data set [2]: In vivo pharmacokinetics in plasma after oral gavage (PO) in male CD-1 mice. The following applies: plasma, single PO dose 5 mg/kg, male CD-1 mice; for bioavailability / AUC(0-t) / Cmax / Tmax / half-life: mouse; for bioavailability: oral availability; for half-life: read-out: t½ (converted). The protocol:
The purpose of this study is to determine the pharmacokinetics of the tested compounds in plasma, following oral gavage administration (PO) to male CD-1 mice.
Animal Husbandry: Animals were group housed during acclimation and the study. The animal room environment were controlled (target conditions: temperature 18 to 26° C., relative humidity 30 to 70%, 12 hours artificial light and 12 hours dark). Temperature and relative humidity were monitored daily. Animals were fasted at least 12 hours prior to the administration. All animals had access to Certified Rodent Diet ad libitum 4 hours post dosing.
Dose Formulation: prepared 85-100 uL of a stock solution of representative compounds of the disclosure in DMSO at 50 mM; 1.5% v/v of Tween 80 were added and mixed gently; 95.5% v/v saline was added gently to the organic phase. The solution was mixed slowly by reverse pipetting to get a clear solution.
Dose Administration: the dose formulations were administered via oral gavage per facility SOPs. The dose volume were determined by the animals' body weight collected on the morning of dosing day
Sample Collection: blood collection (about 0.05 mL per time point) was performed from saphenous vein of each animal into polypropylene tubes at each timepoints (0, 0.25, 0.5, 1, 2, 4, 8, 12, and 24 hr). All blood samples were transferred into pre-chilled tubes containing 2 μL of K2-EDTA (0.5M) and placed on wet ice until centrifugation. Each collected blood sample was in the wet-ice before centrifugation. Each collected blood was under centrifugation for 15 minutes at 4° C. and 3000 g for plasma collection. Plasma samples were stored in polypropylene tubes, quickly frozen over dry ice and kept at −70±10° C. until LC/MS/MS analysis.
Bioanalytical analysis: A LC-MS/MS method for the quantitative determination of tested compound in biological matrix were developed under non-GLP compliance. A calibration curve with at least 7 non-zero calibration standards were applied for the method including LLOQ.
Plasma concentration versus time data were analyzed by non-compartmental approaches using the Phoenix WinNonlin 6.3 software program. Cl, Vdss, C0, Cmax, Tmax, T^1/2, AUC(0-t), AUC(0-inf), MRT(0-t), MRT(0-inf), % F (oral availability) and graphs of plasma concentration versus time profile were reported.

The next data set deals with T1, androgen receptor (AR) (Homo sapiens, UniProt P10275, T878A).
T1 construct: LNCaP cells were transiently transfected with the PSA (6.1 kb)-luciferase reporter for 24 h; endogenous in cells; host or cells: LNCaP
T1 sequence (P10275 1-920 T878A): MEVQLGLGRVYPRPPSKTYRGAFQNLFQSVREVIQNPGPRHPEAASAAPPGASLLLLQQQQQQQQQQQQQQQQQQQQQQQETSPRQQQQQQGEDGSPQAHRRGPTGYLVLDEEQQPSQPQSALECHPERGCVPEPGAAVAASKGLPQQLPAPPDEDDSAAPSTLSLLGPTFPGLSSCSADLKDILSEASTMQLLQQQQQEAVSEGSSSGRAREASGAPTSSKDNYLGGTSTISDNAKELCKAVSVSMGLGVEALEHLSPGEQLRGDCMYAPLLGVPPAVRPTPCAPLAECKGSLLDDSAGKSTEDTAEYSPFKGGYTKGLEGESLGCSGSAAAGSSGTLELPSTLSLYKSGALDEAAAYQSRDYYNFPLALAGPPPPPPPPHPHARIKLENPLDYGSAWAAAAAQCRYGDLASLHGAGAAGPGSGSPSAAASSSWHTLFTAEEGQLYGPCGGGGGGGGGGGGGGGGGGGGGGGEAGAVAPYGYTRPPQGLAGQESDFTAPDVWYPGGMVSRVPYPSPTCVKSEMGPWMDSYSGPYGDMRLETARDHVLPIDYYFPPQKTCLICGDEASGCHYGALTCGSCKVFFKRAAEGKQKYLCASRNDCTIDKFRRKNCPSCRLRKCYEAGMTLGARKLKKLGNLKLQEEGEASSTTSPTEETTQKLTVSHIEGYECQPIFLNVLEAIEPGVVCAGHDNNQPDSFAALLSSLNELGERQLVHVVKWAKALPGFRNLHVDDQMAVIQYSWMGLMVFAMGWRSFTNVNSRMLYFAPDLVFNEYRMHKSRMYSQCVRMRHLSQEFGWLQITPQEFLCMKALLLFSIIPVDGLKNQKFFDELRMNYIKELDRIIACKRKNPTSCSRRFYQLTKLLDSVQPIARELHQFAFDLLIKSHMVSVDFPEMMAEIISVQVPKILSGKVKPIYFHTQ
Put plainly: Androgen-induced PSA (6.1 kb)-luciferase reporter assay in LNCaP cells. It is filed as cell-based. The following applies: LNCaP cells transfected with PSA (6.1 kb)-luciferase reporter, R1881 1 nM, 24 h; read-out: PSA-Luc IC50 Range. In short, it runs like this:
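LNCaP cells carrying a PSA (6.1 kb) promoter-luciferase reporter with AREs; androgen-induced firefly luciferase read from lysates for 10 s. RLU normalized to protein content; IC50 calculated from the normalized data.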

A short description of data set [3]: Microsomal stability assay, mouse liver microsomes. It is filed as in vitro ADME. The note with it: mouse, liver microsomes, pH 7.4, mouse liver microsomes, 1 μM compound, 0.5 mg/mL protein, 37° C.; read-out: MLM +30/− NADPH: Clint (μL/min/mg protein). The essentials: as §1

With `Cc1cc(C(C)(C)c2ccc(OCc3ocnc3S(C)(=O)=O)cc2)cc(C#N)c1OCCCl` [Compound A29, 2-(2-chloroethoxy)-3-methyl-5-(2-(4-((4-(methylsulfonyl)oxazol-5-yl)methoxy)phenyl)propan-2-yl)benzonitrile], the microsomal CLint at 1 μM in data set [1] lay within 12 to 48 µL/min/mg. Also, in data set [2], the bioavailability turned out to be 60.6%, the AUC(0-t) was found to be 5190 ng·h/mL, the Cmax came out at 2010 ng/mL and the Tmax is 0.5 h. In addition, in data set [2], the half-life is 2.5 h and the “AUC/D” value is 1037.3 kg·ng·h/mL/mg. Also, the IC50 at androgen receptor (AR) was under 500 nM. In addition, in data set [3], the microsomal CLint at 1 μM was in the range of 12 to 48 µL/min/mg.

With `CC(Oc1ccc(C(C)(C)c2cc(Cl)c(OCCCl)c(Cl)c2)cc1)c1ocnc1S(C)(=O)=O` (stereo not drawn) [Compound A35, 5-(1-(4-(2-(3,5-Dichloro-4-(2-chloroethoxy)phenyl)propan-2-yl)phenoxy)ethyl)-4-(methylsulfonyl)oxazole], the microsomal CLint at 1 μM in data set [1] was under 12 µL/min/mg. Moreover, in data set [2], the bioavailability came to 49.6%, the area under the curve AUC(0-t) is 2420 ng·h/mL, the maximum concentration (Cmax) came out at 819 ng/mL and the Tmax was found to be 0.5 h. In addition, in data set [2], the half-life was 4 h and the “AUC/D” value is 483.0 kg·ng·h/mL/mg. Besides, on androgen receptor (AR), the IC50 lay in the range of 500 to 2000 nM. Moreover, in data set [3], the microsomal CLint at 1 μM is 12 to 48 µL/min/mg.

Consider `CC(C)(c1ccc(OCc2ncc(S(C)(=O)=O)o2)cc1)c1cc(Cl)c(OCCCl)c(Cl)c1` [Compound A66], for which the microsomal CLint at 1 μM in data set [1] is under 12 µL/min/mg. In data set [2], the bioavailability turned out to be 71.4%, the AUC(0-t) was 11900 ng·h/mL, the highest concentration (Cmax) amounted to 1610 ng/mL and the time to peak (Tmax) stood at 0.8 h. In data set [2], the half-life was 12 h and the “AUC/D” value worked out at 2385.4 kg·ng·h/mL/mg. Further, the half-inhibitory concentration (IC50) on androgen receptor (AR) was 500 to 2000 nM. The microsomal CLint at 1 μM in data set [3] was under 12 µL/min/mg.
